The values that follow come from patent US10745428B2, “Antiviral phosphodiamide prodrugs of tenofovir” (Merck Sharp & Dohme Corp., priority 2015, dated 2020).

Read-outs that look alike come from different tables or passages of the source.

Data set [1] is described as follows: Prodrug stability assay in bio-relevant media (FaSSIF with Pancreatin), GI Tract stability. It is filed as in vitro ADME. As to conditions: HPLC peak area of prodrug at 5 h divided by area at 0 h; 0.5 mg/mL Pancreatin in FaSSIF, 37° C. The procedure: The following assay was employed to evaluate the stability of the prodrugs in simulated gastrointestinal tract conditions. Preparation of fasted state simulated intestinal fluid (FaSSIF) using Phares SIF Powder was carried out according to protocols from Phare Drug Delivery AG (Baselland, Switzerland). For sample preparation, 10 μL stock solutions (10 mM) of prodrug substance in DMSO was added to 990 μL of 0.5 mg/mL Pancreatin solution (Fisher CAS#8049-47-6) in FaSSIF. Two samples were prepared for each compound. If the sample was a clear solution, it was directly analyzed by HPLC. If the sample was not clear, the sample was diluted with 100% ACN, maintained at 37° C. and observed 5 h later. If the sample was clear, HPLC analysis was directly performed. If the sample was still not clear, the sample was diluted with 100% ACN and assayed by HPLC. All the samples were vortexed for 3 min and observed before injection. For the diluted samples, the area is multiplied by a factor when the data is analyzed. The analysis was carried out with an Agilent 1100 series HPLC with autosampler. The column was usually a Poroshell 120 EC-C18, 4.6×50 mm, 2.7 μm. The flow rate was 1.8 mL/min, and the injection volume was 5 or 10 μL. UV detection was in the range 210-400 nm. The mobile phase consisted of solvent A (water plus 10 mM tetrabutylammonium bromide) and solvent B (acetonitrile) with a gradient of 90% solvent A at 0 min, changing to 95% solvent B over 6 min, maintaining for 1.5 min, then reverting to 90% solvent A over 1.6 min. The HPLC peak area of the prodrug at 5 h was divided by the HPLC peak area of the prodrug at 0 h, to generate the % claimed parent ratio, which is summarized in Table 2. for GI Tract stability.

In data set [2] the test system is HIV-1 (H9/IIIB strain). Put plainly: Multiple round HIV-1 infection assay (Viking assay), HIV-1 replication in MT4-GFP cells. The conditions noted are these: MT4-GFP cells infected with HIV-1 H9/IIIB. It counts as cell-based. As for the experimental part: The antiviral activity of the tenofovir prodrugs of the Examples herein was assessed in an assay that measures the rate of replication of HIV in cell culture, termed the Viking assay (VIral KINetics in Green cells) and performed as follows. HIV-1 replication was monitored using MT4-gag-GFP clone D3 (hereafter designated MT4-GFP; GFP is green fluorescent protein), which are MT-4 cells modified to harbor a GFP reporter gene, the expression of which is dependent on the HIV-1 expressed proteins tat and rev; see Wang Y-J et al., 2010J Virological Methods 165:230-237. Productive infection of an MT4-GFP cell with HIV-1 results in GFP expression approximately 24 h post-infection. MT4-GFP cells were maintained at 37° C./5% CO2/90% relative humidity in RPMI 1640 supplemented with 10% fetal bovine serum, 100 U/ml penicillin/streptomycin, and 400 μg/ml G418 to maintain the reporter gene. For infections, MT4-GFP cells were placed in the same medium lacking G418 and infected overnight with HIV-1 (H9/IIIB strain) virus at an approximate multiplicity of infection of 0.01 in the same incubation conditions. Cells were then washed and re-suspended in either RPMI 1640 supplemented with 10% or 50% normal human serum (NHS) at 1.6×10^5 cells/mL (10% NHS or 50% NHS, respectively). Compound plates were prepared by dispensing compounds dissolved in DMSO into wells of 384 well poly-D-lysine-coated plates (0.2 μl/well) using an ECHO acoustic dispenser. Each compound was tested in a 10-point serial 3-fold dilution (typical final concentrations: 8.4 μM-0.42 nM). Controls included no inhibitor (DMSO only) and a combination of three antiviral agents (efavirenz, indinavir, and an integrase strand transfer inhibitor at final concentrations of 4 μM each). Cells were added (50 μL/well) to compound plates and the infected cells were maintained at 37′C/5% CO2/90% relative humidity.
Infected cells were quantified at two time points, ˜48 h and ˜72 h post-infection, by counting the number of green cells in each well using an Acumen eX3 scanner. The increase in the number of green cells over ˜24 h period gives the reproductive ratio, R0, which is typically 5-15 and has been shown experimentally to be in logarithmic phase (data not shown). R0 is calculated for each well, and IC50s determined by non-linear 4-parameter curve fitting.

[3] abbreviates: 10% normal human serum, read-out: Viking, IC50 (10% NHS).
The mark [4] stands for this setting: 50% normal human serum, read-out: Viking, IC50 (50% NHS).
The mark [5] stands for this setting: Human immunodeficiency virus 1, IIIB, 10% normal human serum, read-out: Viking, IC50 (10% NHS).
Where [6] appears, read: Human immunodeficiency virus 1, IIIB, 50% normal human serum, read-out: Viking, IC50 (50% NHS).

The IC50 is the concentration at which inhibition is half-maximal. Take `CC(C)OC(=O)C(C)(C)NP(=O)(CO[C@H](C)Cn1cnc2c(N)ncnc21)N[C@H](C)C(=O)OC1CCC1` (single isomer, unassigned) [Example 18B]: in data set [1], the “GI Tract stability” value is reported as 97.4%. Further, the IC50 in data set [2] (setting [3]) is 11 nM; in data set [2] (setting [4]), 25.8 nM.
For the molecule `CCCCCCOC(=O)[C@@H](C)NP(=O)(CO[C@H](C)Cn1cnc2c(N)ncnc21)NC(C)(C)C(=O)OCCCCCC` (single isomer, unassigned) [Example 13A], in data set [1], the “GI Tract stability” value is 99.1%. Moreover, the values for the IC50 in data set [2] (setting [5]) and in data set [2] (setting [6]) were 7.2 nM and 40.4 nM, respectively.
On to `CC(C)OC(=O)C(C)(C)NP(=O)(CO[C@H](C)Cn1cnc2c(N)ncnc21)N[C@H](C)C(=O)OC1CCCC1` (single isomer, unassigned) [Example 1B], for which, in data set [1], the “GI Tract stability” value is recorded as 95.9%. Further, the values for the IC50 in data set [2] (setting [3]) and in data set [2] (setting [4]) were 2.4 nM and 6.2 nM, respectively.
Take `CCCCCCOC(=O)[C@@H](C)NP(=O)(CO[C@H](C)Cn1cnc2c(N)ncnc21)NC(C)(C)C(=O)OCCCCCC` (single isomer, unassigned) [Example 13B]: the “GI Tract stability” value in data set [1] amounted to 83.8%.
Regarding `CCCCCOC(=O)C(C)(C)NP(=O)(CO[C@H](C)Cn1cnc2c(N)ncnc21)N[C@H](C)C(=O)OC1CCC1` (single isomer, unassigned) [Example 19B], the “GI Tract stability” value in data set [1] is given as 49.3%. The IC50 turned out to be 2.5 nM in data set [2] (setting [3]) and 10.8 nM in data set [2] (setting [4]).
`CCCOC(=O)C(C)(C)NP(=O)(CO[C@H](C)Cn1cnc2c(N)ncnc21)N[C@H](C)C(=O)OC1CCC1` (single isomer, unassigned) [Example 22B]: in data set [1], the “GI Tract stability” value was 72.6%. The IC50 in data set [2] (setting [3]) was determined as 4.4 nM; in data set [2] (setting [4]), 15.4 nM.
The corresponding values for `CCCCCOC(=O)[C@H]1CCCN1P(=O)(CO[C@H](C)Cn1cnc2c(N)ncnc21)NC(C)(C)C(=O)OCCCCC` (single isomer, unassigned) [Example 26B] are 92.5%, 4.4 nM and 19.5 nM.
In the case of `CCCCCOC(=O)C(C)(C)NP(=O)(CO[C@H](C)Cn1cnc2c(N)ncnc21)N[C@H](C)C(=O)OC(C)C` (single isomer, unassigned) [Example 17B], in data set [1], the “GI Tract stability” value amounted to 94.2%. Also, the concentration for half-maximal inhibition (IC50) in data set [2] (setting [3]) turned out to be 1.3 nM; in data set [2] (setting [4]), 5.2 nM.
The like results for `CCCCCOC(=O)C(C)(C)NP(=O)(CO[C@H](C)Cn1cnc2c(N)ncnc21)N[C@H](C)C(=O)OC1CCCC1` (single isomer, unassigned) [Example 24B] were, in that order, 82.7%, 0.9 nM and 3.9 nM.
On to `C[C@H](Cn1cnc2c(N)ncnc21)OCP(=O)(N[C@H](C)C(=O)OC1CCCC1)NC(C)(C)C(=O)OC1CCCCC1` (single isomer, unassigned) [Example 27B], for which the “GI Tract stability” value in data set [1] came out at 93.5%. Besides, the figures for the IC50 in data set [2] (setting [3]) and in data set [2] (setting [4]) were 1.6 nM and 4.7 nM, respectively.
The like results for `CCCOC(=O)C(C)(C)NP(=O)(CO[C@H](C)Cn1cnc2c(N)ncnc21)N[C@H](C)C(=O)OC1CCC1` (single isomer, unassigned) [Example 22A] were, in that order, 98.2%, 11.6 nM and 50.9 nM.
The like results for `CCCCCCOC(=O)C(C)(C)NP(=O)(CO[C@H](C)Cn1cnc2c(N)ncnc21)N[C@H](C)C(=O)OC(C)C` (single isomer, unassigned) [Example 2A] were, in that order, 100%, 15.9 nM and 78 nM.
The like results for `CCCCCCOC(=O)C(C)(C)NP(=O)(CO[C@H](C)Cn1cnc2c(N)ncnc21)N[C@H](C)C(=O)OC1CCCCC1` (single isomer, unassigned) [Example 15B] were, in that order, 51.2%, 0.7 nM and 2.1 nM.
In the case of `C[C@H](Cn1cnc2c(N)ncnc21)OCP(=O)(N[C@H](C)C(=O)OC1CCCC1)NC(C)(C)C(=O)OC1CCC1` (single isomer, unassigned) [Example 28A], the IC50 was 5.4 nM in data set [2] (setting [5]) and 16.1 nM in data set [2] (setting [4]).
As to `C[C@H](Cn1cnc2c(N)ncnc21)OCP(=O)(N[C@H](C)C(=O)OC1CCCC1)NC(C)(C)C(=O)OC1CCCCC1` (single isomer, unassigned) [Example 27A], the IC50 in data set [2] (setting [3]) was found to be 12.9 nM; in data set [2] (setting [4]), 64.5 nM.
On to `CC(C)OC(=O)C(C)(C)NP(=O)(CO[C@H](C)Cn1cnc2c(N)ncnc21)N[C@H](C)C(=O)OC1CCCC1` (single isomer, unassigned) [Example 1A], for which the 50% inhibitory concentration (IC50) was found to be 19.3 nM in data set [2] (setting [3]) and 44.3 nM in data set [2] (setting [4]).
On to `CCCCCOC(=O)[C@@H](C)NP(=O)(CO[C@H](C)Cn1cnc2c(N)ncnc21)NC(C)(C)C(=O)OC(C)C` (single isomer, unassigned) [Example 8B], for which the values for the IC50 in data set [2] (setting [3]) and in data set [2] (setting [4]) were 3.9 nM and 20.7 nM, respectively.
The corresponding values for `CC(C)OC(=O)C(C)(C)NP(=O)(CO[C@H](C)Cn1cnc2c(N)ncnc21)N[C@H](C)C(=O)OC1CCCCC1` (single isomer, unassigned) [Example 6A] are 101 nM and 500 nM.
The corresponding values for `CCCCCCOC(=O)C(C)(C)NP(=O)(CO[C@H](C)Cn1cnc2c(N)ncnc21)N[C@H](C)C(=O)OC1CCC1` (single isomer, unassigned) [Example 21B] are 0.7 nM and 2.8 nM.
On to `CC(C)OC(=O)C(C)(C)NP(=O)(CO[C@H](C)Cn1cnc2c(N)ncnc21)N[C@H](C)C(=O)OC1CCC1` (single isomer, unassigned) [Example 18A], for which the IC50 in data set [2] (setting [5]) came out at 20 nM; in data set [2] (setting [6]), 34.2 nM.
As to `CCCCCOC(=O)[C@@H](C)NP(=O)(CO[C@H](C)Cn1cnc2c(N)ncnc21)NC(C)(C)C(=O)OC(C)C` (single isomer, unassigned) [Example 8A], the IC50 in data set [2] (setting [6]) was 41.4 nM; in data set [2] (setting [3]), 12.6 nM.
With `CC(C)OC(=O)C(C)(C)NP(=O)(CO[C@H](C)Cn1cnc2c(N)ncnc21)N[C@H](C)C(=O)OC1CCCCC1` (single isomer, unassigned) [Example 6B], the values for the IC50 in data set [2] (setting [3]) and in data set [2] (setting [4]) were 1.9 nM and 5.6 nM, respectively.
The like results for `CC(C)COC(=O)[C@@H](C)NP(=O)(CO[C@H](C)Cn1cnc2c(N)ncnc21)NC(C)(C)C(=O)OC(C)C` (single isomer, unassigned) [Example 5B] were, in that order, 2.5 nM and 6.4 nM.
The corresponding values for `CCCCCCOC(=O)C(C)(C)NP(=O)(CO[C@H](C)Cn1cnc2c(N)ncnc21)N[C@H](C)C(=O)OCCCCC` (single isomer, unassigned) [Example 12A] are 7.3 nM and 54.4 nM.
The like results for `CCCCCCOC(=O)[C@@H](C)NP(=O)(CO[C@H](C)Cn1cnc2c(N)ncnc21)NC(C)(C)C(=O)OC(C)C` (single isomer, unassigned) [Example 7A] were, in that order, 10.4 nM and 57.8 nM.
